In US11155844B2, “Process for the production of ortho-aminobenzoic acid and/or aniline from fermentable substrate using recombinant yeast” (Covestro Deutschland AG, priority 2015, dated 2021):
≈ marks a conversion by molar mass, not a printed value.

Experiment: solubility of oAB in water depending on the pH
Format: physicochemical
Details: plasma or biological fluid; pH between 3.0 and 4.0; fermentation broth; read-out: oAB remaining dissolved at the solubility minimum

## Nc1ccccc1C(=O)O [oAB, 2-aminobenzoic acid]
  solubility: ~5 mg/mL (≈ 36.5 mM)
